Patent US10787447B2, “Pharmaceutical compounds” (Heptares Therapeutics Limited, priority 2018, dated 2020)
Like-named read-outs stand apart in the source and are kept apart here.

Key:
Type in all cases: cell-based
[1] = target: T1, human muscarinic M3 receptor (Homo sapiens, UniProt P20309); assay: Alphascreen Surefire phospho-ERK1/2 functional assay, M3; settings: for % Emax cf. ACh, M3: CHO cells stably expressing human M3, Emax relative to ACh
T1 construct: expressed in transfected cells
Method: (§1) ERK1/2 phosphorylation is a downstream consequence of both Gq/11 and Gi/o protein coupled receptor activation, making it highly suitable for the assessment of M1, M3 (Gq/11 coupled) and M2, M4 receptors (Gi/o coupled), rather than using different assay formats for different receptor subtypes. CHO cells stably expressing the human muscarinic M1, M2, M3 or M4 receptor were plated (25K/well) onto 96-well tissue culture plates in MEM-alpha+10% dialysed FBS. Once adhered, cells were serum-starved overnight. Agonist stimulation was performed by the addition of 5 μL agonist to the cells for 5 min (37° C.). Media was removed and 50 μL of lysis buffer added. After 15 min, a 4 μL sample was transferred to 384-well plate and 7 μL of detection mixture added.
(§2) Isomer assignment (Isomer 1, Isomer 2, etc.) is based on the retention time of the compound using the separation technique that was performed in the final purification step. By implication, this could be reversed phase HPLC, chiral HPLC or chiral SFC retention time, and this will vary from compound to compound.

[2] = target: T2, human muscarinic M4 receptor (Homo sapiens, UniProt P08173); assay: Alphascreen Surefire phospho-ERK1/2 functional assay, M4; settings: for % Emax cf. ACh, M4 / Emax: Emax relative to ACh; for EC50: phospho-ERK1/2; for Emax: CHO, read-out: % Emax cf. ACh, M4, CHO cells stably expressing human M4
T2 sequence (P08173 1-479): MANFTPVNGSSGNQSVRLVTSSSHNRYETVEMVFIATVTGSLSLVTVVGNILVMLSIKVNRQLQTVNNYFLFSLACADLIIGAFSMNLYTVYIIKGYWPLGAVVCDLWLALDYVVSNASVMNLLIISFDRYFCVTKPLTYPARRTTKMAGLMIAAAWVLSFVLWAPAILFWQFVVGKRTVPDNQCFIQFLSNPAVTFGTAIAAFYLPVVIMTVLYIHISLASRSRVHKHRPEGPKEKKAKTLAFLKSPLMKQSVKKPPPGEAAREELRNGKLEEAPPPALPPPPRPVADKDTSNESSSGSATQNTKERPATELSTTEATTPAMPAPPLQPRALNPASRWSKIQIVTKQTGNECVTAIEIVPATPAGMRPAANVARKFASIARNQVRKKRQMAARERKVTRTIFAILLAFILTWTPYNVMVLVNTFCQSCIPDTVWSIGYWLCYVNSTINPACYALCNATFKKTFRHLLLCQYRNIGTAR
Method: as §1, §2

[3] = target: T3, human muscarinic M2 receptor (Homo sapiens, UniProt P08172); assay: Alphascreen Surefire phospho-ERK1/2 functional assay, M2; settings: for EC50: pEC50 M2, CHO cells stably expressing human M2, phospho-ERK1/2; for % Emax cf. ACh, M2: CHO cells stably expressing human M2
T3 sequence (P08172 1-466): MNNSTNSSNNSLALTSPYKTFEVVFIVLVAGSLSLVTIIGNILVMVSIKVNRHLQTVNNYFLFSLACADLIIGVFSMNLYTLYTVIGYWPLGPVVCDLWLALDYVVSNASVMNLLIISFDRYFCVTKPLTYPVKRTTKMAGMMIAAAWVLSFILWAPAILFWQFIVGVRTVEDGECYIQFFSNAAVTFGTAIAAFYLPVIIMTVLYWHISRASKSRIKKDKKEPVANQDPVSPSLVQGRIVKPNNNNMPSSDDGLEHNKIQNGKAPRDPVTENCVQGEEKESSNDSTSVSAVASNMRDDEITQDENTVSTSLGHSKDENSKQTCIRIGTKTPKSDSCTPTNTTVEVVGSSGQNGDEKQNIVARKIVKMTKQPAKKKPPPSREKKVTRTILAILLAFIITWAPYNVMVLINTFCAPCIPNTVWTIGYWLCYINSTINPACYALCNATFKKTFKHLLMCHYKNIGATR
Method: as §1, §2

[4] = target: T4, human muscarinic M1 receptor (Homo sapiens, UniProt P11229); assay: Alphascreen Surefire phospho-ERK1/2 functional assay, M1; settings: for Emax: CHO, read-out: % Emax cf. ACh, M1, CHO cells stably expressing human M1; for Emax / % Emax cf. ACh, M1: Emax relative to ACh; for EC50: phospho-ERK1/2
T4 sequence (P11229 1-460): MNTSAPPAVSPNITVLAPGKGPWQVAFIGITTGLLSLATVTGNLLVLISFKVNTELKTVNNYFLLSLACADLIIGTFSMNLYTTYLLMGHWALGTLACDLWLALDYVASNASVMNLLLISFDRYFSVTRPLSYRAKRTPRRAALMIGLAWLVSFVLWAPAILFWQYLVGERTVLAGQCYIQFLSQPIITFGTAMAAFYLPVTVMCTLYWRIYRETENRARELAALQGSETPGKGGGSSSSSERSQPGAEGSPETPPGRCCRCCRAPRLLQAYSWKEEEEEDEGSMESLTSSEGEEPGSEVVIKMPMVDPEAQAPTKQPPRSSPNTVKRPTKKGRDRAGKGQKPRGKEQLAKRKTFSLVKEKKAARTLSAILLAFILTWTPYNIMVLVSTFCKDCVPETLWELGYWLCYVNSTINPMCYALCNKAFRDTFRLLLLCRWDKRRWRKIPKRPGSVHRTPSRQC
Method: as §1, with “Functional assays were performed using the Alphascreen Surefire phospho-ERK1/2 assay (Crouch & Osmond, Comb. Chem. High Throughput Screen, 2008). ERK1/2” for “ERK1/2”
as §2, with “For the vast majority of examples at least two diastereomers exist and these have been separated, unless otherwise stated, using the techniques of reversed phase HPLC, chiral HPLC or chiral SFC. Isomer assignment” for “Isomer assignment”

[5] = pEC50 M4, CHO cells stably expressing human M4
[6] = pEC50 M1, CHO cells stably expressing human M1
[7] = CHO cells stably expressing human M4
[8] = CHO cells stably expressing human M4, read-out: pEC50 M4 (converted)
[9] = CHO cells stably expressing human M1, read-out: pEC50 M1 (converted)

T1 sequence (P20309 whole entry): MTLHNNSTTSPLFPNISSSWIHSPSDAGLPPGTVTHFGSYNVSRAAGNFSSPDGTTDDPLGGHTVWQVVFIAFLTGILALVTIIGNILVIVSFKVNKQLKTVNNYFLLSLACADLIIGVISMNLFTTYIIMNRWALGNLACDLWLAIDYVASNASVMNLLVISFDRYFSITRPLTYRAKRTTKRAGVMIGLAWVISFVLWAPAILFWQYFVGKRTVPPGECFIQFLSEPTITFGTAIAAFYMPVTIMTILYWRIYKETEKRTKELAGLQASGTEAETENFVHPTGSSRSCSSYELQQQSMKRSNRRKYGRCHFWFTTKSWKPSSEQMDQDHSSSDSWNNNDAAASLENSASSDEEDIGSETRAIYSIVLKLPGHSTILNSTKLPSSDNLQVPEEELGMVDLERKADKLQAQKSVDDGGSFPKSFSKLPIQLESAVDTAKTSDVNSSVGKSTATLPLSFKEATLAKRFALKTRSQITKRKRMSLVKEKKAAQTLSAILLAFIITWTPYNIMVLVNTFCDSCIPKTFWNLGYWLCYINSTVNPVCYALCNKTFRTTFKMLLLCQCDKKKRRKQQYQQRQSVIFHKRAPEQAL

With `CCOC(=O)N1C2COCC1CC(N1CCC3(CC1)CC3)C2` (single isomer, unassigned) [Example 5-1 Isomer 1, Ethyl 7-(6-azaspiro[2.5]oct-6-yl)-3-oxa-9-azabicyclo[3.3.1]nonane-9-carboxylate] the “% Emax cf. ACh, M3” value ([1]; listed as 5-1 Isomer 1) was 0%, the EC50 ([1]; pEC50 M3, CHO cells stably expressing human M3, phospho-ERK1/2) was > 20 µM and the “% Emax cf. ACh, M4” value ([2]; CHO cells stably expressing human M4, listed as 5-1 Isomer 1) was 13%. The EC50 [2, 5] was > 20000 nM, the Emax ([3]; CHO, read-out: % Emax cf. ACh, M2, CHO cells stably expressing human M2, Emax relative to ACh) was 8% and the EC50 [3] was > 20000 nM. It also gave an Emax [4] of 47% and an EC50 [4, 6] of 72.4 nM.
`CC(=O)OCC[N+](C)(C)C` [ACh] was tested, and the “% Emax cf. ACh, M3” value [1] was 115% and the “% Emax cf. ACh, M4” value [2, 7] was 110%.
For `CCOC(=O)N1C2COCC1CC(N1CCC(N(CC3(C)CCC3)C(C)=O)CC1)C2` (single isomer, unassigned) [Example 6-4 Isomer 1], the “% Emax cf. ACh, M4” value ([2]; CHO cells stably expressing human M4, listed as 6-4 Isomer 1) was 80%, the EC50 [2, 5] was 42.7 nM and the “% Emax cf. ACh, M2” value ([3]; Emax relative to ACh, listed as 6-4 Isomer 1) was 33%. The EC50 [3] was 363 nM, the “% Emax cf. ACh, M1” value ([4]; CHO cells stably expressing human M1, listed as 6-4 Isomer 1) was 103% and the EC50 [4, 6] was 14.5 nM.
With `CCOC(=O)N1C2COCC1CC(N1CCC3(CC1)C(=O)Nc1ccccc13)C2` (single isomer, unassigned) [Example 5-5 Isomer 2, Ethyl 7-(2-oxo-1,2-dihydro-1′H-spiro[indole-3,4′-piperidin]-1′yl)-3-oxa-9-azabicyclo[3.3.1]nonane-9-carboxylate] the “% Emax cf. ACh, M4” value [2, 7] was 108%, the EC50 [2, 5] was 8.51 nM and the “% Emax cf. ACh, M2” value ([3]; Emax relative to ACh, listed as 5-5 Isomer 2) was 67%. For the same molecule, the EC50 [3] was 75.9 nM, the “% Emax cf. ACh, M1” value ([4]; CHO cells stably expressing human M1, listed as 5-5 Isomer 2) was 108% and the EC50 [4, 6] was 53.7 nM.
In the case of `CCOC(=O)N1C2COCC1CC(N1CCC3(CC1)OC(=O)NC3CC)C2` (single isomer, unassigned) [Example 5-4 Isomer 2a, Ethyl 7-(4-ethyl-2-oxo-1-oxa-3,8-diazaspiro[4.5]dec-8-yl)-3-oxa-9-azabicyclo[3.3.1]nonane-9-carboxylate], the “% Emax cf. ACh, M4” value ([2]; CHO cells stably expressing human M4, listed as 5-4 Isomer 2a) is reported as 61%, the EC50 [2, 5] is reported as 200 nM and the “% Emax cf. ACh, M1” value ([4]; CHO cells stably expressing human M1, listed as 5-4 Isomer 2a) is reported as 75%. For the same molecule, the EC50 [4, 6] was 977 nM.
`CCOC(=O)N1C2COCC1CC(N1CCC3(CC1)CNC(=O)O3)C2` (single isomer, unassigned) [Example 5-3 Isomer 1, Ethyl 7-(2-oxo-1-oxa-3,8-diazaspiro[4.5]dec-8-yl)-3-oxa-9-azabicyclo[3.3.1]nonane-9-carboxylate] showed an EC50 [2, 8] of 832 nM, an Emax [2] of 33% and an EC50 [4, 9] of 1450 nM. For the same molecule, the Emax [4] was 75%.
`CCOC(=O)N1C2COCC1CC(N1CCC3(CC1)CNC(=O)C3)C2` (single isomer, unassigned) [Example 5-2 Isomer 1, Ethyl 7-(3-oxo-2,8-diazaspiro[4.5]dec-8-yl)-3-oxa-9-azabicyclo[3.3.1]nonane-9-carboxylate] was tested, and the Emax [2] was 36%, the EC50 [2, 5] was 302 nM and the “% Emax cf. ACh, M1” value ([4]; CHO cells stably expressing human M1, listed as 5-2 Isomer 1) was 82%. For the same molecule, the EC50 [4, 6] was 316 nM.
With `CCOC(=O)N1C2COCC1CC(N1CCC(C(=O)N3CCCCCC3)CC1)C2` (single isomer, unassigned) [Example 7-4 Isomer 1, Ethyl 7-[4-(azepan-1-ylcarbonyl)piperidin-1-yl]-3-oxa-9-azabicyclo[3.3.1]nonane-9-carboxylate] the EC50 [2, 8] was > 20000 nM, the Emax [2] was 65% and the EC50 [4, 9] was 550 nM. The Emax [4] was 85%.
Molecule `CCOC(=O)N1C2COCC1CC(N1CCC(C(=O)NCC(C)C)CC1)C2` (single isomer, unassigned) [Example 7-2 Isomer 1, Ethyl 7-{4-[(2-methylpropyl)carbamoyl]piperidin-1-yl}-3-oxa-9-azabicyclo[3.3.1]nonane-9-carboxylate] has an Emax [2] of 72%, an EC50 [2, 5] of 457 nM and an Emax [4] of 96%. The EC50 [4, 6] was 79.4 nM.
In the case of `COC(=O)N1C2COCC1CC(N1CCC(N(CC3(C)CCC3)C(C)=O)CC1)C2` (single isomer, unassigned) [Example 8-1 Isomer 1, Methyl 7-(4-(N-((1-methylcyclobutyl)methyl)acetamido)piperidin-1-yl)-3-oxa-9-azabicyclo[3.3.1]nonane-9-carboxylate], the “% Emax cf. ACh, M4” value ([2]; CHO cells stably expressing human M4, listed as 8-1 Isomer 1) is reported as 77%, the EC50 [2, 5] is reported as 155 nM and the “% Emax cf. ACh, M1” value ([4]; CHO cells stably expressing human M1, listed as 8-1 Isomer 1) is reported as 123%. The EC50 [4, 6] was 85.1 nM.
For `COC(=O)N1C2COCC1CC(N1CCC(N(Cc3ccccc3)C(C)=O)CC1)C2` (single isomer, unassigned) [Example 8-2 Isomer 1, Methyl 7-(4-(N-benzylacetamido)piperidin-1-yl)-3-oxa-9-azabicyclo[3.3.1]nonane-9-carboxylate], the “% Emax cf. ACh, M4” value ([2]; CHO cells stably expressing human M4, listed as 8-2 Isomer 1) was 54%, the EC50 [2, 5] was 661 nM and the “% Emax cf. ACh, M1” value ([4]; CHO cells stably expressing human M1, listed as 8-2 Isomer 1) was 99%. It also gave an EC50 [4, 6] of 79.4 nM.
For `CCOC(=O)N1C2COCC1CC(N1CCC(N(CC(C)(C)C)C(C)=O)CC1)C2` (single isomer, unassigned) [Example 6-2 Isomer 1, Ethyl 7-{4-[acetyl(2,2-dimethylpropyl)amino]piperidin-1-yl}-3-oxa-9-azabicyclo[3.3.1]nonane-9-carboxylate], the EC50 [2, 8] was 1050 nM, the Emax [2] was 45% and the EC50 [4, 9] was 617 nM. The Emax [4] was 71%.
